# In patent US20060252798A1, “Metal ion chelators and therapeutic use thereof” (priority 2003, published 2006):
# Like-named read-outs stand apart in the source and are kept apart here.
# Legend:
# intracellular ROS = test: Intracellular ROS assay (DCF-DA, flow cytometry), M109 cells; format: cell-based, mouse; settings: 50 μM, 10 min, positive control
# Description: Intracellular ROS generation was assessed using the cell-permeable dye 2′,7′-dichlorofluorescein-diacetate (DCF-DA) (Sigma). DCF-DA readily diffuses into cells and becomes highly fluorescent when oxidised by O2^•−, H2O2, or OH^−.^29 Cellular fluorescence intensity is directly proportional to the level of intracellular ROS.^29 M109 cells (1×10^5 cells/well) were incubated with or without 1 μM Dp44mT for 0-48 h or 50 μM H2O2 (positive control) for 10 min at 37° C. The cells were then incubated with DCF-DA (5 μM) for 20 min at 37° C., washed twice, and detached from the culture plates. The fluorescence of oxidised DCF in cells was measured using flow cytometry.^29)
# To test whether induction of h-cytc release from the mitochondrion (FIG. 15A) and the imbalance of Bcl-2/Bax expression (FIG. 15B) was due to the presence of ROS, intracellular ROS were measured by flow cytometry using the DCFH-DA probe which becomes fluorescent when oxidised by O2^•−, H2O2, or OH^−.^29 Incubation of M109 cells with Dp44mT (1 μM) increased the levels of oxidised probe as a function of time. After 2 h, a 25±10% increase in oxidised DCFH-DA fluorescence was found compared to the 0 h time point, and this increased to 486±96% after 48 h (FIG. 15C). For comparison, a 10 min incubation with the positive control, H2O2 (50 μM), increased fluorescence to 1312±46% of the 0 h time point (FIG. 15C)
# NCI H2452 mesothelioma = test: MTT cellular proliferation assay, NCI H2452; format: cell-based; settings: 0-50 μM, 72 h, 3 experiments
# Description: (§1) The final concentration of the compounds was 0.39-50 μM. […] […] After this incubation, 0.01 mL of MTT was added to each well and the plates incubated for 2 h at 37° C. The cells were then solubilised by adding 0.1 mL of 10% SDS-50% isobutanol in 0.01 M HCl and the plates then read at 570 nm on a scanning multiwell spectrophotometer (Titertek Multiscan; Beckman Instruments Inc, California). MTT colour formation was directly proportional to the number of viable cells.
# (§2) At the end of the incubation period, cell density was determined by the MTT assay (described above).
# SK-Mel-28 melanoma cells = test: MTT cellular proliferation assay, SK-Mel-28; format: cell-based, human; settings: Table 3, 72 h, mean ± SD
# Description: as §1
# (§3) Dp2mT served as a negative control.
# (§4) Dp2mT served as a negative control as the methyl group at the 2-position hinders Fe-chelation.
# [1] = tested on: iron regulatory proteins (IRPs); test: IRP-RNA-binding activity, gel-retardation assay, SK-N-MC cells; format: cell-based, human; settings: DFO 100 μM, FAC 100 μg/ml, other chelators 25 μM, 20 h (FIG. 8)
# MRC-5 fibroblasts = test: MTT cellular proliferation assay, MRC-5 fibroblasts; format: cell-based, human
# Description: as §1
# The MRC-5 cell type is a normal human lung fibroblast cell strain that is mortal and senesces after a number of passages in vitro. The SK-N-MC neuroepithelioma cell type is immortal.
# as §3
# DU 145 prostate cancer = test: MTT cellular proliferation assay, DU 145; format: cell-based; settings: 0-50 μM, 72 h, 2 experiments
# Description: as §1, §2
# GADD45 and WAF1 mRNA = test: Northern blot of WAF1 and GADD45 mRNA expression in SK-N-MC cells; format: cell-based, human; settings: DFO 100 μM, other chelators 25 μM, 20 h at 37° C. (FIG. 7)
# Description: FIG. 7. […] Northern blotting was performed using standard procedures (see Example 6).
# Northern blot analysis was performed by isolating total RNA using the Total RNA Isolation Reagent (Advanced Biotechnologies Ltd, Surrey, United Kingdom). The membranes were hybridised with probes specific for human WAF1, GADD45, and β-actin. The WAF1 probe consisted of a 1 kb fragment from pSXV (ATCC; Cat. No. 79928). The GADD45 probe consisted of a 760 bp fragment from human GADD45 cDNA cloned into pHu145B2 (kindly supplied by Dr. Albert Fornace, National Cancer Institute, NIH, Maryland). The β-actin probe consisted of a 1.4 kb fragment from human β-actin cDNA cloned into pBluescript SK− (ATCC; Cat. No. 37997).
# IMR-32 Neuroblastoma = test: MTT cellular proliferation assay, IMR-32; format: cell-based; settings: 0-50 μM, 72 h, 1 experiment
# Description: as §1, §2
# [2] = tested on: SK-N-MC neuroepithelioma cells; test: 3H-leucine incorporation by SK-N-MC cells; format: cell-based, human; settings: 20 h incubation then 2 h label; Mean ± SD, 4 experiments
# Description: (§5) After a 20 h incubation of the SK-N-MC cells with a selection of analogues, ^3H-thymidine, ^3H-leucine, or ^3H-uridine (1 μCi/ml) was added for 2 h at 37° C. The cells were detached from the 96 well plate using 1 mM EDTA in Ca(II)/Mg(II)-free PBS and collected and washed using a cell harvester (Tomtec Harvester 96, Linbrook, Queensland, Australia). Radioactivity was measured on a P-scintillation counter (LKB Wallace, Turku, Finland).
# [3] = tested on: SK-N-MC neuroepithelioma cells; test: MTT cellular proliferation assay, SK-N-MC; format: cell-based, human
# Description: […] […] After this incubation, 0.01 mL of MTT was added to each well and the plates incubated for 2 h at 37° C. The cells were then solubilised by adding 0.1 mL of 10% SDS-50% isobutanol in 0.01 M HCl and the plates then read at 570 nm on a scanning multiwell spectrophotometer (Titertek Multiscan; Beckman Instruments Inc, California). MTT colour formation was directly proportional to the number of viable cells.
# The effect of the compounds on the proliferation of SK-N-MC neuroepithelioma cells was examined using the MTT assay (described above).
# as §3
# M109 carcinoma cells = test: 59Fe uptake from 59Fe-Tf by M109 cells; format: cell-based, mouse; settings: 1 μM
# Description: The ability of the compound Dp44mT to inhibit the growth of M109 lung carcinoma cells in mice was assessed. Studies were performed using M109 carcinoma cells in culture to determine the effect of Dp44mT on mobilising ^59Fe from these cells (FIG. 11C) and inhibiting ^59Fe uptake from ^59Fe-Tf (FIG. 11D). As internal controls, cells were incubated with DFO and 311. The effect of compound concentration on increasing ^59Fe mobilisation from M109 cells was examined by labelling cells with ^59Fe-Tf (0.75 μM) for 3 h at 37° C. followed by washing and reincubation with the respective compounds (0.2-25 μM) for 3 h at 37° C. (FIG. 11C). […] In contrast, 311 increased cellular ^59Fe release from 8±1% (control medium) to […] at 5 μM (FIG. 11C). For Dp44mT ^59Fe release plateaued at 2 μM, resulting in the efflux of 48±2% of ^59Fe (FIG. 11C).
# At 1 μM, 311 reduced ^59Fe uptake to 40±4% of the control. […] Dp44mT had similar activity to 311 up to a concentration of 5 μM, where it reduced ^59Fe uptake to 30±1% of the control (FIG. 11D).
# HEP G2 Hepatoma = test: MTT cellular proliferation assay, HEP G2; format: cell-based; settings: 0-50 μM, 72 h, 1 experiment
# Description: as §1, §2
# [4] = tested on: MCF-7 breast cancer cells; test: MTT cellular proliferation assay, MCF-7; format: cell-based, human; settings: values given in Example 8; read-out: IC50, anti-proliferative activity in MCF-7 cells
# Description: […] […] […] After this incubation, 0.01 mL of MTT was added to each well and the plates incubated for 2 h at 37° C. The cells were then solubilised by adding 0.1 mL of 10% SDS-50% isobutanol in 0.01 M HCl and the plates then read at 570 nm on a scanning multiwell spectrophotometer (Titertek Multiscan; Beckman Instruments Inc, California). MTT colour formation was directly proportional to the number of viable cells.
# as §3, §4
# H69AR lung cancer = test: MTT cellular proliferation assay, H69AR; format: cell-based; settings: 0-50 μM, 72 h, 1 experiment
# Description: as §1, §2
# [5] = tested on: SK-N-MC neuroepithelioma cells; test: 3H-uridine incorporation by SK-N-MC cells; format: cell-based, human; settings: 20 h incubation then 2 h label; Mean ± SD, 3 experiments
# Description: as §5
# [6] = tested on: SK-N-MC neuroepithelioma cells; test: 3H-thymidine incorporation by SK-N-MC cells; format: cell-based, human; settings: 20 h incubation then 2 h label; Mean ± SD, 4 experiments
# Description: as §5
# Ndrg1 = Ndrg1 expression in MCF-7 cells (Western blotting); format: cell-based, human; settings: 25 μM, 24 h, MCF-7 cells (FIG. 16)
# Description: FIG. 16. […] The expression of Ndrg1 and β-actin protein levels were assessed by Western blotting.
# MCF-7 cells were incubated for 24 h with a range of metal ion chelators. […] Dp2mT was used as a negative control, […]
# [7] = tested on: SK-N-MC neuroepithelioma cells; test: 59Fe mobilization from prelabelled SK-N-MC neuroepithelioma cells; format: cell-based, human
# Description: The effect of chelators on ^59Fe release from prelabelled cells was studied using standard procedures.^18 Cells were prelabelled with ^59Fe-transferrin (0.75 μM) for 3 h at 37° C. […] The overlying medium was then removed and placed into γ-counting tubes. The cells were removed from the petri dishes in 1 ml of BSS using a plastic spatula and transferred to a separate set of γ-counting tubes.
# The ability of the compounds to mobilise ^59Fe from SK-N-MC neuroepithelioma cells was assessed after a 3 h labelling period with ^59Fe-Tf (0.75 μM) at 37° C. […]
# DFO and 311 were used as internal standards.
# [8] = tested on: SK-N-MC neuroepithelioma cells; test: 59Fe uptake from 59Fe-transferrin by SK-N-MC neuroepithelioma cells; format: cell-based, human; settings: 0.5-50 μM, 3 h; PCTH internal control (FIG. 5B)
# Description: The cells were then placed on ice and washed four times with ice-cold Hank's balanced salt solution (BSS) to remove non-specifically bound ^59Fe-Tf. Cells were then incubated with the general protease, pronase (1 mg/ml), for 30 min at 4° C. to remove membrane-bound ^59Fe and Tf.
# PCTH was used as an internal control.
# [9] = Table 2, MTT assay, 90 h incubation, Mean ± SD, 4 experiments, read-out: IC50 Values of Chelators
IC50 (DU 145 prostate cancer) [nM],IC50 (IMR-32 Neuroblastoma) [nM],"IC50 [3, 9] [nM]",IC50 (H69AR lung cancer) [nM],Molecule,IC50 (NCI H2452 mesothelioma) [nM],IRP-RNA binding activity [1],GADD45 and WAF1 mRNA expression (GADD45 and WAF1 mRNA),3H-Leucine Incorporation [2] [% Control],3H-Uridine Incorporation [5] [% Control],3H-Thymidine Incorporation [6] [% Control],also measured
,,,,OO [H2O2],,,,,,,fluorescence (intracellular ROS): 1312±46 % of the 0 h time point
1940,300,3000 ± 2000,970,"O=C(NN=Cc1c(O)ccc2ccccc12)c1ccncc1 [compound 311, 2-hydroxy-1-naphthylaldehyde isonicotinoyl hydrazone]",470,increase,up-regulation,2 ± 1,5 ± 2,0.1 ± 0.1,"IC50 (SK-Mel-28 melanoma cells): 900 ± 500 nM; IC50 (MRC-5 fibroblasts; Table 3, normal cells, 72 h, MTT, read-out: IC50 MRC-5 fibroblasts): > 25000 nM; IC50 ([3]; Table 3, 0-25 μM, 72 h, MTT, mean ± SD, read-out: IC50 SK-N-MC neuroepithelioma): 300 nM; 59Fe uptake (M109 carcinoma cells): 40±4 % of the control; IC50 (HEP G2 Hepatoma): 1180 nM; IC50 [4]: 600 nM; up-regulation of Ndrg1 (Ndrg1): markedly increased"
1430,300,3000 ± 1000,780,di-2-pyridylketone 2-thiophenecarboxaldehyde hydrazone [PKTH],730,,pronounced effect,19 ± 8,5 ± 1,0.04 ± 0.01,"IC50 (MRC-5 fibroblasts; Example 4c, FIG. 6, read-out: IC50 values in fibroblasts): 16000 nM; 59Fe mobilisation as a function of concentration ([7]; 0.5-50 μM, 3 h, PCTH internal control (FIG. 5A)): more effective than PCTH; cellular 59Fe released ([7]; chelator 1 μM, 3 h reincubation at 37° C. (FIG. 5A)): 26%; prevention of 59Fe uptake as a function of concentration [8]: higher efficacy than the control PCTH"
,,,,ferric ammonium citrate [FAC],,decreased,,,,,
